Consider four compounds from ChEMBL document CHEMBL1201862, “PubChem BioAssay data set” (2004).

Active and inactive are the calls of the source.

By IC50 is commonly meant the point on the concentration scale where inhibition reaches its midpoint.

Test [1] deals with Glyceraldehyde-3-phosphate dehydrogenase (Homo sapiens, UniProt P04406).
In test [2] the target is T1, Bcl-2-related protein A1 (Mus musculus, UniProt Q07440).
T1 sequence (Q07440 whole entry): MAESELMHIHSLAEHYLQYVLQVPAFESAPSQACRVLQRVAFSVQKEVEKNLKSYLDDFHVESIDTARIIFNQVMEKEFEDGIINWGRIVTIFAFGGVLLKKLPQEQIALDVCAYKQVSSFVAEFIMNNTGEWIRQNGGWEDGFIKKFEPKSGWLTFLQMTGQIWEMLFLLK
Put plainly: small-molecule antagonists of Bfl-1/BH3 interaction – biochemical, TR-FRET, mouse Bfl-1, confirmation (AID 621).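 Note: TR-FRET binding of GST-Bfl-1 to FITC-labelled Bid peptide via terbium antibody.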

The target in test [3] is T1, Bcl-2-related protein A1. As to the kind of experiment: Bfl-1 binding inhibitors, SAR follow-up, biochemical, fluorescence polarization (AID 1070). A general note: Polarisation of emitted light reports the rotation of a fluorescent probe.
The target in test [4] is Serine/threonine-protein phosphatase PP1-alpha catalytic subunit (Homo sapiens, UniProt P62136). As to the kind of experiment: inhibition of protein phosphatase 1 activity – biochemical, fluorescence, dose response (AID 2394).
Test [5] concerns the target Serine/threonine-protein phosphatase (Homo sapiens, UniProt Q9BPW0). As to the kind of experiment: inhibition of protein phosphatase 5 activity – biochemical, fluorescence, dose response (AID 2395).
In the next test the target is Cytochrome P450 2C19 (Homo sapiens, UniProt P33261). Put plainly: qHTS Assay for Inhibitors and Substrates of Cytochrome P450 2C19. [Related pubchem assays: 410 ]. Type of test: ADME. Particulars: read-out: Potency.
In the next test the target is Cytochrome P450 3A4 (Homo sapiens, UniProt P08684). Particulars: Potency.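 Note: confirmatory qHTS run detecting inhibitors and substrates of CYP3A4.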
Test [6] deals with Dual specificity protein phosphatase 6 (Rattus norvegicus, UniProt Q64346). Put plainly: inhibition of rat DUSP6 enzyme activity – biochemical, in vitro, primary screen (AID 425).
Chain of Dual specificity protein phosphatase 6 (Q64346 whole entry): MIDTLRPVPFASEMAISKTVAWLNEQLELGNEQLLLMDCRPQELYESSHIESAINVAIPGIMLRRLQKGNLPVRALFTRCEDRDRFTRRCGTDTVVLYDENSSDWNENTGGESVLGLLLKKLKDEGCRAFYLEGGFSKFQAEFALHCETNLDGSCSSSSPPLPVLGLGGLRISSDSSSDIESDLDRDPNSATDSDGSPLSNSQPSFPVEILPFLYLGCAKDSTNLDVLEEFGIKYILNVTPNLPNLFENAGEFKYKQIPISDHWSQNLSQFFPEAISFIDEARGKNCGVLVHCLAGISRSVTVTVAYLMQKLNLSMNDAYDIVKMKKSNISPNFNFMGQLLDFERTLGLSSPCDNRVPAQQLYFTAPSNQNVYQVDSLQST

Chain of Cytochrome P450 3A4 (P08684 whole entry): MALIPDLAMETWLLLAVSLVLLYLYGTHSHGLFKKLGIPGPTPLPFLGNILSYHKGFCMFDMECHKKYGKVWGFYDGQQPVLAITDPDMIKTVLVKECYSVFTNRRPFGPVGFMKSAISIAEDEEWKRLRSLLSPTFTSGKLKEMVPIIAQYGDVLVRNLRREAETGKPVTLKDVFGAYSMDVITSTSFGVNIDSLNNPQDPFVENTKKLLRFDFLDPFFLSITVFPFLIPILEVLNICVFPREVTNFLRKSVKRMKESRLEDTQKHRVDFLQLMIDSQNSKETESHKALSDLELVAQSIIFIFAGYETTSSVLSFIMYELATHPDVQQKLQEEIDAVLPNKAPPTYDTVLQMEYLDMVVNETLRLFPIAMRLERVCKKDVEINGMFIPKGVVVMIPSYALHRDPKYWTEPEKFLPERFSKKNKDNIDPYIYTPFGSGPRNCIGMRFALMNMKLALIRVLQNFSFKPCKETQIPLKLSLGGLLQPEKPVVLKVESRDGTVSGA
Chain of Glyceraldehyde-3-phosphate dehydrogenase (P04406 whole entry): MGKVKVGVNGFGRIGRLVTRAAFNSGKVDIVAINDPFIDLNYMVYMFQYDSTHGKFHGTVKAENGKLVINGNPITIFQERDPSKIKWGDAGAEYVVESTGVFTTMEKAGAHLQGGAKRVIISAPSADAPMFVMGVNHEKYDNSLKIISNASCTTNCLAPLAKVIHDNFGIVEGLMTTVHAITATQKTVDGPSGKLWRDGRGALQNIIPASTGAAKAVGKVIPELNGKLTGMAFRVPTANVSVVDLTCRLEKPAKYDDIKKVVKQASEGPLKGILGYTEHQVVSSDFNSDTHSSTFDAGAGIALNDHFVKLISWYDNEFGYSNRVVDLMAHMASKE
Chain of Cytochrome P450 2C19 (P33261 whole entry): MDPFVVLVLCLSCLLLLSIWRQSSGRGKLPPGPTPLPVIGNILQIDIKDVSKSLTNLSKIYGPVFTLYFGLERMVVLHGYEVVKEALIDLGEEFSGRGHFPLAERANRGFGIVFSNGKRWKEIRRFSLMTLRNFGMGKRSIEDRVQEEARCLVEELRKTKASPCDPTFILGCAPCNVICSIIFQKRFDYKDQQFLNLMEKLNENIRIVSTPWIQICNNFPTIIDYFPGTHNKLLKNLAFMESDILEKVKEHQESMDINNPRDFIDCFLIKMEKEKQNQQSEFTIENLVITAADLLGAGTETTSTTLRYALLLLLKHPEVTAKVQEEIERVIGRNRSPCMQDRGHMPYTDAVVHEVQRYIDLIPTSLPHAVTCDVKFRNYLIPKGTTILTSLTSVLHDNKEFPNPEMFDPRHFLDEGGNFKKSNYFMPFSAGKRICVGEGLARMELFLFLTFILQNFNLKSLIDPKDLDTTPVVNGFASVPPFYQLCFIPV
Chain of Serine/threonine-protein phosphatase PP1-alpha catalytic subunit (P62136 whole entry): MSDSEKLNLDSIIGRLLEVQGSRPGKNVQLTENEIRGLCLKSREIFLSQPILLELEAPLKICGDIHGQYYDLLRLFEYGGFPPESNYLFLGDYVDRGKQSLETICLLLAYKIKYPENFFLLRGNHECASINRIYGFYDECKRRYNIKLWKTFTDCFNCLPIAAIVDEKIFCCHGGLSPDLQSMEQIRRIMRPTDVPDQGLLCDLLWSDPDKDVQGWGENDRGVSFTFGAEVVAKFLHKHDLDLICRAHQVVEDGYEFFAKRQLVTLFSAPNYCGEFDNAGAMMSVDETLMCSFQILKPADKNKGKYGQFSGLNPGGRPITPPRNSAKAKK
Chain of Serine/threonine-protein phosphatase (Q9BPW0 whole entry): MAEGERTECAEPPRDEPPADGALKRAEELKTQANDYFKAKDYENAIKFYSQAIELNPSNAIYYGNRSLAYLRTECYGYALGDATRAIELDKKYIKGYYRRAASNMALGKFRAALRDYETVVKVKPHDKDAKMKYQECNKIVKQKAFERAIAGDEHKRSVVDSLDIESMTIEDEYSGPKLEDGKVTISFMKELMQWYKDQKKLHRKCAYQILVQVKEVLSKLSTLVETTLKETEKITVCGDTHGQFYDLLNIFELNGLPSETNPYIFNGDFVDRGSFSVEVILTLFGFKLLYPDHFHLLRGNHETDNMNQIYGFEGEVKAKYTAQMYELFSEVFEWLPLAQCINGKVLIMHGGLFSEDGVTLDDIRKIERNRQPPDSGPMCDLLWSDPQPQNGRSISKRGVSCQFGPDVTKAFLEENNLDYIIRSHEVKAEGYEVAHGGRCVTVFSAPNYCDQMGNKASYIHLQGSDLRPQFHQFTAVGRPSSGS

As to `O=C1C(Cl)=C(N2CCN(c3ccccc3)CC2)C(=O)N1c1ccc(Cl)c(Cl)c1`, the values for the concentration for half-maximal inhibition (IC50) (in test [1]; on Bcl-2-related protein A1 [2]; on Bcl-2-related protein A1 [3]) were > 100 µM (not active), 4.13 µM (active) and 4.95 µM (active), respectively.

Take `COC(=O)CCC(=O)OC1(C)C(=O)C=C2C=C(C3CC3)N(CC3CC3)C=C2C1=O` (stereo not drawn): the IC50 in test [4] is 63.6 µM (not active); in test [5], 17 µM (not active).

On to `COC(=O)NC(c1ccccc1)C(C(=O)OC)C(=O)OC` (stereo not drawn), for which the AC50 at Cytochrome P450 2C19 was 5.01 µM (inconclusive); at Cytochrome P450 3A4, 3.16 µM (inconclusive).

Regarding `CCOC(=O)c1cc2sccc2n1Cc1ccccc1`, in test [6], the 50% inhibitory concentration (IC50) is > 100 µM (not active).
